PubChem BioAssay AID330 (DTP/NCI, 2004)
Values joined by “and” are separate entries in the source; they are usually repeats but may differ in a detail not shown here. Equal entries are not always repeated. Toxic doses and inconclusive results are not listed. The calls were made as follows: active = survival T/C of 150% or more; inactive = T/C below 125% in these data. Peptide text beside a SMILES is read from it. * marks the point of attachment. Cbz = O=C(OCc1ccccc1)*

Tested on: P388 leukemia ip, CD2F1 mice, survival T/C
Assay: NCI In Vivo Anticancer Drug Screen. Data for tumor model P388 Leukemia (intraperitoneal) in CD2F1 (CDF1) mice
Settings: endpoint: median survival time, higher = longer survival
Procedure, shortened: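 Mice carrying the transplanted tumor received test compound or vehicle. Survival was recorded in each group, and the value is the treated-group measurement divided by that of the vehicle-treated control group.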

[1] = dose: 25.0 mg/kg/injection, schedule: Q01DX009 (ip), vehicle: Klucel (hydroxypropylcellulose) (HPC)
[2] = dose: 50.0 mg/kg/injection, schedule: Q01DX009 (ip), vehicle: Klucel (hydroxypropylcellulose) (HPC)
[3] = dose: 100.0 mg/kg/injection, schedule: Q01DX009 (ip), vehicle: Klucel (hydroxypropylcellulose) (HPC)
[4] = dose: 50.0 mg/kg/injection, schedule: Q01DX005 (ip), vehicle: Klucel (hydroxypropylcellulose) (HPC)
[5] = dose: 100.0 mg/kg/injection, schedule: Q01DX005 (ip), vehicle: Klucel (hydroxypropylcellulose) (HPC)
[6] = dose: 200.0 mg/kg/injection, schedule: Q01DX005 (ip), vehicle: Klucel (hydroxypropylcellulose) (HPC)

Measured: T/C

Nc1nc2c(c(=O)[nH]1)NC(CN(C(=O)CCCl)c1ccc(C(=O)NC(CCC(=O)O)C(=O)O)cc1)CN2 (centres undefined)
inactive: dose: 50.0 mg/kg/injection, schedule: Q01DX001 (ip), vehicle: alkali diluted with saline 101 % of control | dose: 100.0 mg/kg/injection, schedule: Q01DX001 (ip), vehicle: alkali diluted with saline 104 % of control | dose: 200.0 mg/kg/injection, schedule: Q01DX001 (ip), vehicle: alkali diluted with saline 101 % of control

COc1cc2ccc3c[n+](C)ccc3c2cc1OC
inactive: dose: 6.25 mg/kg/injection, schedule: Q01DX009 (ip), vehicle: water 101 % of control and 103 % of control | dose: 12.5 mg/kg/injection, schedule: Q01DX009 (ip), vehicle: other 107 % of control | dose: 12.5 mg/kg/injection, schedule: Q01DX009 (ip), vehicle: water 114 % of control | dose: 25.0 mg/kg/injection, schedule: Q01DX009 (ip), vehicle: other 119 % of control | dose: 25.0 mg/kg/injection, schedule: Q01DX009 (ip), vehicle: water 116 % of control and 122 % of control | dose: 100.0 mg/kg/injection, schedule: Q01DX009 (ip), vehicle: water 108 % of control

c1cc2cc3c(cc2cc1CC1NCCc2cc4c(cc21)OCO4)OCO3 (centres undefined)
inactive: dose: 12.5 mg/kg/injection, schedule: Q01DX009 (ip), vehicle: Klucel (hydroxypropylcellulose) (HPC) 100 % of control | [1] 91 % of control | [2] 107 % of control | [3] 91 % of control

CCCCc1ccc(-n2c(C)nc3[nH]cc(C)c3c2=N)cc1
inactive: [4] 96 % of control | [5] 102 % of control | [6] 97 % of control

CONC(C)=O
inactive: dose: 60.0 mg/kg/injection, schedule: Q01DX005 (ip), vehicle: saline 98 % of control | dose: 120.0 mg/kg/injection, schedule: Q01DX005 (ip), vehicle: saline 100 % of control | dose: 240.0 mg/kg/injection, schedule: Q01DX005 (ip), vehicle: saline 100 % of control

COC(=O)C(CC(C)C)NC(=O)C(CO)NC(=O)OCc1ccccc1 (stereo not drawn) (Cbz-Ser-Leu-OMe; configuration not given here)
inactive: dose: 50.0 mg/kg/injection, schedule: Q01DX005 (ip), vehicle: saline with Tween-80 100 % of control | dose: 100.0 mg/kg/injection, schedule: Q01DX005 (ip), vehicle: saline with Tween-80 99 % of control | dose: 200.0 mg/kg/injection, schedule: Q01DX005 (ip), vehicle: saline with Tween-80 100 % of control

CC(C)(OC(=O)NC(CC(N)=O)C(=O)O)c1ccc(-c2ccccc2)cc1 (centres undefined)
inactive: [4] 98 % of control | [5] 104 % of control | [6] 90 % of control

CC(C)CC(NC(=O)C(Cc1ccccc1)NC(=O)CNC(=O)CNC(=O)C(N)Cc1ccc(O)cc1)C(=O)O (centres undefined)
inactive: dose: 12.5 mg/kg/injection, schedule: Q01DX005 (ip), vehicle: water 110 % of control | dose: 25.0 mg/kg/injection, schedule: Q01DX005 (ip), vehicle: water 103 % of control | dose: 50.0 mg/kg/injection, schedule: Q01DX005 (ip), vehicle: water 95 % of control | dose: 100.0 mg/kg/injection, schedule: Q01DX005 (ip), vehicle: water 98 % of control | dose: 200.0 mg/kg/injection, schedule: Q01DX005 (ip), vehicle: water 100 % of control

O=C([O-])[O-].O=S(=O)(O)O.[Co+3].[NH-]CC[NH-].[NH-]CC[NH-]
inactive: dose: 50.0 mg/kg/injection, schedule: Q01DX009 (ip), vehicle: saline 90 % of control | dose: 100.0 mg/kg/injection, schedule: Q01DX009 (ip), vehicle: saline 93 % of control | dose: 200.0 mg/kg/injection, schedule: Q01DX009 (ip), vehicle: saline 94 % of control

O=C(O)c1cccc(C(=O)O)c1I
inactive: dose: 100.0 mg/kg/injection, schedule: Q01DX001 (ip), vehicle: other 103 % of control | dose: 200.0 mg/kg/injection, schedule: Q01DX001 (ip), vehicle: other 96 % of control | dose: 400.0 mg/kg/injection, schedule: Q01DX001 (ip), vehicle: other 89 % of control

O=C(OC1(c2nccc3ccccc23)CCCCC1)c1ccccc1
inactive: [1] 97 % of control | [2] 93 % of control | dose: 100.0 mg/kg/injection, schedule: Q01DX001 (ip), vehicle: Klucel (hydroxypropylcellulose) (HPC) 103 % of control | dose: 200.0 mg/kg/injection, schedule: Q01DX001 (ip), vehicle: Klucel (hydroxypropylcellulose) (HPC) 94 % of control | dose: 400.0 mg/kg/injection, schedule: Q01DX001 (ip), vehicle: Klucel (hydroxypropylcellulose) (HPC) 92 % of control

CCN(C(=S)NCCCOC)c1ccc(C)cc1
inactive: [2] 97 % of control | [3] 86 % of control | dose: 200.0 mg/kg/injection, schedule: Q01DX009 (ip), vehicle: Klucel (hydroxypropylcellulose) (HPC) 87 % of control
